These results are taken from US4997818A, “Therapeutic method for selectively treating terminal deoxynucleotidyl transferase-positive neoplastic leukemias and lymphomas” (The University Hospital, priority 1989, dated 1991).

Assay [1] concerns the target T1, terminal deoxynucleotidyl transferase (TdT) (Bos taurus, UniProt P06526).
T1 construct: purchased DuPont/NEN Products, Boston, Massachusetts; host or cells: calf thymus
Kind of assay: TdT enzyme assay (3H-dGTP incorporation). The format is biochemical, calf. The procedure:
(§1) Initially, the effect of various ddNTPs on TdT and DNA polymerase alpha was evaluated. DNA polymerase alpha, purified from calf thymus according to Kornberg [DNA Replication, W.H. Freeman and Company, 1980, p 206]and Wahl et al. [Biochemistry 23:1895 (1984)] was purchased from Pharmacia, Inc. (Piscataway, N.J.). TdT, purified from calf thymus, was purchased from DuPont/NEN Products, Boston, Massachusetts). Enzyme assays were conducted at 37 C. under conditions established to be optimal for each assay. For DNA polymeraseα, 0.1 ml of reaction mixture contained: 0.05 M tris-HCl (pH 8.3); 4 mM dithiothreitol; 4 mM MgCl; 10 ug poly(dAT); 0.05 mM ^3 H-dATP; 0.05 mM dTTP; and 0.05 units of enzyme. For TdT assays, 0.1 ml of standard reaction mixture contained: 0.05 M tris-HCl (pH 8.3); 2 mM dithiothreitol; 0.6 mM MnCl; 20 ug oligo(dA) 50; 0.1 mM ^3 H-dGTP; and 0.5 units of TdT.
For these studies, ddNTPs were dissolved in deionized distilled water and added to the respective reaction mixtures at time zero to give the effective final concentrations. The degree of reaction or inhibition was calculated from simultaneous control reactions. The mode of inhibition and inhibition constants were determined using Linweaver-Burke and Dixon plots. Each of the respective reactions was stopped using 0.5 ml of cold (4 C) 0.1 M sodium pyrophosphate containing 1 mg/ml yeast RNA (hereinafter"NaPP") and precipitated with 0.5 ml of cold 25% trichloroacetic acid (hereinafter "TCA"). The precipitates centrifuged at 13,000×gravity in a microfuge for one minute; resolubilized in 0.2 ml of 0.3M NaOH; and then reprecipitated with NaPP and TCA. Following a second 0.3 M NaOH resolubilization, 10 ml of scintiverse II (Fisher Scientific Company, Fairlawn, N.J.) was added to each sample for counting in a Beckman LS3700 liquid scintillation counter.
(§2) It should be noted also that for certain TdT assays, a variety of different initiators were used in place of oligo (dA) 50. These included: activated DNA; 5'-^32 T-GTCCGTCTCTGCCTC-3' (15 MER synthesized on an automated synthesizer using standard phosphoramidite chemistry having a ^32 P-end labeled by a standard Maxam-Gilbert reaction); YEP-FG-2-plasmid DNA; oligo (dC) 18; oligo (dT) 18; and various ^3 H-substrates such as dCTP, dATP, and dTTP in place of ^3 H-dGTP. Reactions utilizing the 15 MER initiator contained either 5 mM MgCl2 or 1 mM CoCl2 in place of MnCl2.

The test system of assay [2] is fresh leukemia cell cultures. Kind of assay: Ex-vivo viability of fresh leukemia cells from patients (trypan blue). The note with it: 30 uM CF alone, two instances. The format is cell-based, human. The source says: Leukemic blast cells from bone marrow or peripheral blood were obtained from 12 patients; of these, six persons were diagnosed as afflicted with acute lymphatic leukemia; three persons were diagnosed as afflicted with acute myeloblastic leukemia; two persons were diagnosed as afflicted with blastic chronic myelogenous leukemia; and one person was diagnosed as having acute myelogenous leukemia, complicating multiple myeloma. These diagnoses were based upon standard clinical and laboratory criteria. In ten of these twelve patients, blast cells constituted more than 75% of the mononuclear cells. In the eleventh and twelfth patients, 32% and 42% of the mononuclear cells were blast cells.
The leukemic cells from each person were enriched on Ficoll-Hypaque medium; washed in phosphate-buffered saline without divalent cations; resuspended in RPMI-1640 medium containing 20% FCS; and then grown in RPMI-1640 media supplemented with 10% FCS. The TdT status of each cell sample was independently determined by conventional biochemical assay before culturing. […] The six TdT-positive cases all had acute lymphoblastic leukemia.
Experimentally, all twelve fresh leukemia cell cultures were continuously exposed ex-vivo to 250 uM of ddA and 30 uM of CF for 72 hours. Each was then individually evaluated for viability as determined by trytan blue staining. The empirical results are illustrated by FIG. 6. […]

Assay [3] concerns ML3. Kind of assay: Growth inhibition, viable cell count by trypan blue exclusion. The following applies: Homo sapiens; ML3, TdT negative, 48 hour continuous exposure. The format is cell-based. The procedure: (§3) Each cell line was utilized in exponential growth phase. For test purposes, cells were seeded at […] cells/ml in T25 flasks containing 4 ml of culture medium. Cell counts were made using a hemocytometer. Cell viability was determined using the tryptan blue dye exclusion method. The degree of growth inhibition was calculated by comparison with untreated controls.
(§4) Initially, the effect of a 48 hour continuous exposure to 250 uM and 500 uM of ddA upon four TdT-positive and three TdT-negative cell lines was evaluated.
(§5) The growth inhibition data of Table V is defined as the ratio of viable cells in the ddA exposed cultures in comparison to control cultures. Each determination reflects the mean of triplicate flasks. It is noted that at 250 uM of ddA, there was marked growth inhibition (30-80%) in all four TdT-positive cell lines whereas there was very little effect among the TdT-negative cells (0-15% growth inhibition). At 500 uM of ddA, the cytotoxicity in the TdT-positive lines was further increased (92-99% growth inhibition). At this concentration level, 2 of the 3 TdT-negative lines also show measureable growth inhibition (40-50%).
(§6) As a result, another series of experiments was conducted in which the non-selective purinogenic cytotoxicity was reduced. In this experimental series, a variety of different cell lines were pre-incubated for 30 minutes with the adenosine deaminase inhibitor, coformycin (CF). This CF exposure was then followed by a continuous 48 hour exposure to 250 uM ddA with suitable controls. Growth inhibition was defined as the ratio of viable cells in the CF/ddA exposed cell cultures in comparison to control cultures. Each determination reflects the mean of quadruplicate flasks. The results are provided by FIG. 3 and Table VI respectively.

Assay [4] deals with MOLT-4. Described as above. The format is cell-based. The following applies: Homo sapiens; MOLT-4, TdT positive, 48 hour continuous exposure. The procedure:
as §3, §4, §5, §6

Assay [5] has as its system HPB-ALL. The assay is described as above. The format is cell-based. The following applies: Homo sapiens, HPBALL, TdT positive, 48 hour continuous exposure. The procedure:
as §3, §4, §5, §6

The subject of assay [6] is NALM-6. The description is as above. The format is cell-based. The note with it: Homo sapiens; NALM-6, TdT positive, 48 hour continuous exposure. As to the method: as §3, §4, §5, §6
For assay [7], the system named is 8392. The description is as above. The note with it: Homo sapiens; 8392, TdT negative, 48 hour continuous exposure. The format is cell-based. As to the method:
as §3, §4, §5, §6

Assay [8] concerns L1210. The assay is described as above. The format is cell-based. The note with it: Mus musculus; L1210, TdT negative, 48 hour continuous exposure. The procedure:
as §3, §4, §5

The test system of assay [9] is TdT-positive cell lines. Description: Growth inhibition, summary over TdT-positive cell lines. The format is cell-based. The note with it: 48 hour. The procedure:
as §3, §4, §5
(§7) As a result, another series of experiments was conducted in which the non-selective purinogenic cytotoxicity was reduced. […]

Assay [10] deals with 298-26. Kind of assay: Growth inhibition, viable cell count by trypan blue exclusion. The format is cell-based, Murine. The following applies: Mus musculus; 298-26, TdT positive, 48 hour continuous exposure. The procedure:
as §3, §4, §5, §7

Assay [11] relates to TdT-negative cell lines. Kind of assay: Growth inhibition, summary over TdT-negative cell lines. The format is cell-based. The following applies: 48 hour. As to the method:
as §3, §4, §5

The target of assay [12] is T1, terminal deoxynucleotidyl transferase (TdT). Description: TdT-catalyzed polymerization on 32P-labelled 15 MER initiator, autoradiograph (chain termination). The format is biochemical, calf. The note with it: ddATP as substrate, MgCl2 or CoCl2.
Excerpt: as §2
It should be noted that the mechanism of inhibition by any of the ddNTPs upon TdT catalysis is by chain termination. […] A radiolabelled oligomer (^32 P-GTCCGTCTCTGCCTC-3') shown in Lane 1 was used as an initiator for TdT-catalyzed polymerization using: dATP (Lanes 2 and 4); or ddATP (Lanes 3 and 5 ) as substrates. Lanes 2 and 3 represent the reaction products generated in the presence of MgCl2 while Lanes 4 and 5 represent the reaction products generated in the presence of CoCl2 respectively. Each reaction product was electrophoresed on a 20% polyacrylamide gel under denaturing conditions (2.5 hours at 35 watts, 2800 volts). […] Thus, the effectiveness of chain termination by ddATP is clearly established.

The subject of assay [13] is DNA polymerase alpha. Kind of assay: DNA polymerase alpha enzyme assay. The format is biochemical, calf. The procedure:
as §1
For these studies, ddNTPs were dissolved in deionized distilled water and added to the respective reaction mixtures at time zero to give the effective final concentrations. The degree of reaction or inhibition was calculated from simultaneous control reactions. The mode of inhibition and inhibition constants were determined using Linweaver-Burke and Dixon plots. […]

T1 sequence (P06526 whole entry): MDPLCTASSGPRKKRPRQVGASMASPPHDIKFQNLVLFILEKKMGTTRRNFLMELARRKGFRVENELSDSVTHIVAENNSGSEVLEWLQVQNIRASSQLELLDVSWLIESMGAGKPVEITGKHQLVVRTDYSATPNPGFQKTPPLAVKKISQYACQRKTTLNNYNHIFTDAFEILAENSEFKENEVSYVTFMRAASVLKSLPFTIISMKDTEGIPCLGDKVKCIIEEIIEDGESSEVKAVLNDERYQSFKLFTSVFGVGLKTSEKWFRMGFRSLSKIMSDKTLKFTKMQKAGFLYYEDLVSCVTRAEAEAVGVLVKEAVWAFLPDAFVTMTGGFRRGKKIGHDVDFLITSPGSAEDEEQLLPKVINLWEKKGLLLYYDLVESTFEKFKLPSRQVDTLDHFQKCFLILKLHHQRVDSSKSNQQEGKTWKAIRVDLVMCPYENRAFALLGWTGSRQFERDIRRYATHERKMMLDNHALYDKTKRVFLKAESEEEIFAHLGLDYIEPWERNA

Regarding `Nc1ccn([C@H]2CC[C@@H](COP(=O)(O)OP(=O)(O)OP(=O)(O)O)O2)c(=O)n1` [ddCTP, dideoxycytosine triphosphate], the midpoint of inhibition in assay [1], the IC50, lay at 24.8 µM.

For `OC[C@H]1O[C@@H](n2cnc3c2N=CNC[C@H]3O)[C@H](O)[C@@H]1O` [CF, coformycin], the “effect on cell viability” value in [2] is listed as “no effect”.

As for `Nc1nc2c(ncn2[C@H]2CC[C@@H](COP(=O)(O)OP(=O)(O)OP(=O)(O)O)O2)c(=O)[nH]1` [ddGTP, dideoxyguanosine triphosphate], in assay [1], 18 µM corresponded to half-maximal inhibition (IC50).

As to `Nc1ncnc2c1ncn2[C@H]1CC[C@@H](CO)O1` [ddA, dideoxyadenosine], the inhibition (as a rule, the change of the read-out against control, counted positive when it falls) at 250 µM in assay [3] was determined as 0%; in assay [4] it was 60%; in assay [5], 40%; in assay [6], 30%; in [7], 0%; in [8], 15%. Further, the inhibition at 250 µM in assay [9] (250 uM ddA, read-out: growth inhibition, range over all four TdT-positive cell lines) is 30 to 80%; in [10], 80%; in assay [11] (250 uM ddA, read-out: growth inhibition, range over TdT-negative cells), 0 to 15%. Besides, the inhibition at 500 µM is 40% in assay [3]; 92% in [4]; 99% in assay [5]; 95% in [6]; 0% in assay [7]; 50% in assay [8]. Also, the inhibition at 500 µM was 92 to 99% in assay [9] (500 uM ddA, read-out: growth inhibition, range over TdT-positive lines); 99% in [10]; 40 to 50% in [11] (500 uM ddA, read-out: growth inhibition, 2 of the 3 TdT-negative lines).

As for `Cc1cn([C@H]2CC[C@@H](COP(=O)(O)OP(=O)(O)OP(=O)(O)O)O2)c(=O)[nH]c1=O` [ddTTP, 2',3'-dideoxythymidine triphosphate], in assay [1], the 50% inhibitory concentration (IC50) – broadly, the midpoint of a concentration-inhibition curve – worked out at 47.2 µM.

In the case of `Nc1ncnc2c1ncn2[C@H]1CC[C@@H](COP(=O)(O)OP(=O)(O)OP(=O)(O)O)O1` [ddATP, 2',3'-dideoxyadenosine triphosphate], the “chain termination: residues added by TdT to 15 MER initiator (FIG. 2)” value in assay [12] is “only one residue is added”. Inhibition in assay [1] was half-maximal at 9 µM (IC50). Also, the “effect on TdT polymerization reaction (FIG. 1)” value in assay [1] (micromolar concentrations of ddATP) is recorded as “dramatically inhibits”. The “effect on DNA polymerase alpha enzyme activity (FIG. 1)” value in [13] is given as “does not recognize”.

Molecule `Cc1cn([C@H]2C[C@H](N=[N+]=[N-])[C@@H](CO[P@](=O)(O)O[P@](=O)(O)OP(=O)(O)O)O2)c(=O)[nH]c1=O` [AZTTP, 3'-azido thymidine triphosphate, reference compound] displayed an IC50 in assay [1] of 133 µM.

In assay [1], `O=c1[nH]cnc2c1ncn2[C@H]1CC[C@@H](COP(=O)(O)OP(=O)(O)OP(=O)(O)O)O1` [ddITP, dideoxyinosine triphosphate] returned an IC50 of 20 µM.
